Results reported in patent US8754206B2, “Metal (III) complex of biuret-amide based macrocyclic ligand as green oxidation catalyst” (Council of Scientific & Industrial Research, priority 2011, dated 2014).

Experiments:
[1] = Catalyzed bleaching of Orange II by H2O2; conditions: for k−1: from kinetic fitting; for k1 / k2: 0.01M Phosphate Buffer
Text: In another embodiment, to study the efficacy of complex (IA) as H2O2 activating catalyst, its activity towards bleaching of the dye Orange II ([4-[(2-hydroxynaphthyl)azo]-benzene sulphonic acid], Na+ salt) is studied. […] The exponential kinetic curve, that holds for at least 6 half-lives (FIG. 8), indicates the fact that (IA) is oxidatively robust. Therefore, little or no degradation of the catalysts takes places during the course of the oxidation. This is because C—H bond of the —NMe group is situated very far away from the proposed Fe-oxo intermediate, thereby reducing the chances of ligand degradation by intramolecular C—H abstraction as has been proposed before for other Fe-TAML, complexes.
Using same Perkin-Elmer spectrophotometer Orange II bleaching kinetics were carried out in 0.01 M phosphate buffer at 485 nm, one of the absorption peaks of Orange II. pH was varied from 7 to 11. Strength of stock solutions of IB and Orange II were (2×10^−5 M) and (2−20×10^−4 M) respectively. Stock solution of hydrogen peroxide of 2×10^−2 M was made by measuring the optical density at 230 nm (ε=72.8 M^−1 cm^−1). Appropriate amount of stock solutions of Orange II, Fe^III-catalyst (IB) and H2O2 were added consecutively in the 1.00 cm quartz cell during experiments. Extinction coefficients for Orange II of 17,800, 23,000 and 19,400 M^−1 cm^−1 at pH 7, 9 and 11 respectively was used to calculate the initial rates of Orange II oxidation, Plot of concentration versus time was taken up to 10-20% of conversion of the dye compared to the total reaction.
b. Kinetics of IA and IB Catalyzed Bleaching of Orange II by H2O2 • Orange II dye has absorption maxima at 485 nm. Natural oxidant H2O2 slowly oxidizes Orange II but in presence of IA and IB huge catalysis was observed. The kinetic data followed the mechanism shown in Scheme 2. The initial rate of the dye bleaching reaction obeyed Michaelis-Menten type Equation (2) which was derived considering the steady state of oxidized [Fe^III(L2X)] species using mass balance equation [Fe^III]T=[Fe^III(L2X)]]+[Oxidized-[Fe^III L2X)]]. From kinetic fitting it was observed k.1˜0 for both IA and IB. […] In Table 3 all the kinetic parameters related to Orange II bleaching are given in details at 25° C. in 0.01 M Phosphate Buffer.

[2] = Acid (HClO4) catalyzed demetalation kinetics; format: physicochemical; conditions: for k1* (acid catalyzed demetalation): HClO4, 25.0 °C, 350 nm; for half-life at 0.173 mM: aqueous HClO4 solution, pH 1, read-out: t1/2 [pH 1] (converted)
Protocol: Acid induced demetalation kinetics was monitored in kinetic mode of the spectrophotometer (Perkin-Elmer—λ35) using 1.00 cm quartz cell in thermostatted cell housing. In the all kinetic runs IB was kept constant at 0.173 mM while acid concentration was varied from 0.04 to 3.0 M using HClO4. The pseudo first order rate constants (kd) were calculated from the initial rates at 350 nm (one of the absorption peaks of complex IB) and temperature was kept constant at 25.0±0.5° C. For each set, solution pH was measured with a pH meter (LABINDIA, PICO^+) with calibrated electrode.
(§1) a. Kinetic Studies of Add Catalyzed Demetalation. • [Fe^III(biuret-amide)] catalyst are subject to H^+ catalyzed demetalation, following the Equation 1 according to Scheme 2 described above, kd=k1*[H^+]+k2*[H^+]^2+k3*[H^+]^3 where kd is the first order rate constant.

[3] = Stability towards demetallation at different pH and phosphate buffer ionic strengths (UV-VIS); format: physicochemical; conditions: for demetalation in high concentration phosphate buffer: twenty four hour time scale, 350 nm
Protocol: In yet another embodiment, the stability of (IA) towards demetallation at different pH and ionic strengths is tested to evaluate the operational stability of the complex of instant invention for possible catalytic reactions in water. […] The stability of this complex is also monitored at different ionic strengths at pH 7. […] The phosphate buffer induced demetallation for similar Fe-TAML's have been studied in details. The proposed mechanism for phosphate buffer induced demetallation involves first the co-ordination of the O—PO(OH)2 into the Fe(III) center followed by the intramolecular attack of the H+ onto the amide N-donors. Complex (IA) has an extra —NMe group which is not bonded to the Fe(III) center. The lone pair on this N-atom resides predominantly in the p-orbital and can possibly be the first site for attack of the intramolecular H+ ion, thereby shielding complex (IA) from phosphate induced demetallation.
as §1

[4] = Catalyzed bleaching of Safranine O by H2O2 and intramolecular inactivation; conditions: pH 11.0, 25° C.
Text: Safranine O oxidation kinetics was monitored at 525 nm and pH 11 in 0.01 M Phosphate Buffer. The strengths of stock solutions of Safranine O, [Fe^III(biuret-amide)](X═H, NO2) IA, IB complexes and hydrogen peroxide were respectively 2×10^−3 M, 5×10^−5 M and 0.2 M respectively. The extinction coefficient of 3.3×10^4 […] at 525 nm was used to get initial rate in terms of concentration unit (Ms^−1). To get the intramolecular inactivation rate (ki) absorbance change with time was monitored up to complete inactivation of the catalyst. Calculations of rate constants were performed by using Equation (4) and (5).
c. […] For safranine O bleaching, Equation (2) can be simplified to Equation (3) and k2 value can be calculated from the initial rate vs, [Safranine O] data as given in Table 4.
d. Intramolecular Inactivation (ki) Measurement for Safranine O Bleaching at pH 11.0 • The mono exponential intramolecular inactivation rate constant (ki) measurement of the oxidized form of the catalyst was done by the method followed by Collins group. The simplified differential rate law for dye bleaching is given by Equation (3) where Dt and x are total concentrations of the dye and concentration of the bleached dye at time t respectively. Integrating the Equation (3) under the boundary condition x=x∞ at t=t∞ results Equation (4). Equation (5) was derived by replacing the concentration terms by the absorbance term.
From the slope of the double logarithm of the ratio At/A∞ vs. time plot in Equation 6 gives the value of ki (FIG. 13, Table 4). The rate constant k2 is calculated from the intercept of the plot by putting the value of ki.

[5] = Cyclic voltammetry in acetonitrile; format: physicochemical
Text: The σ-donor ability of (Et4N)2.[Fe^III(biuret-amide)] is studied using cyclic voltammetry. […] The peak observed for (IA) (E1/2 at −0.064 V) can most likely be assigned to a one electron oxidation for a Fe(III)/Fe(IV) couple while the other peak might be due to a ligand centered oxidation process (FIG. 6). On comparison with Fe-TAML complex (II) where a —CMe2 group is present instead of a —NMe group in the six membered ring of the complex, the Fe(III)/Fe(IV) couple for (IA) is found to be approximately 230 mV lower.
Infrared spectra were obtained on a Perkin-Elmer FT-IR spectrum GX instrument. LC-MS from Acquity Waters was used for ESI-MS analysis. EPR spectrum was recorded on a Bruker EMX X-band spectrometer operating at a field modulation of 100 kHz, modulation amplitude of 2. G and microwave radiation power of 2 mW. The solid Fe(III) complex was taken in a quartz tube and the spectrum was recorded at 298K. Cyclic voltammetry (CV) was done on an Autolab PGSTAT30 (Eco-Chemie) instrument in a conventional three-electrode test cell with platinum as the working electrode (WE), platinum wire as quasi reference electrode (RE) and a platinum foil as a counter electrode (CE). The measurements were carried out using a solution of 1 mM of (I) in dry acetonitrile with 0.1 M [n-Bu4N]PF6 as the supporting electrolyte. All reversible couples were confirmed by a linear dependence of peak current vs. the square root of the scan rate over the range of 20-200 mVs^−1.

Compound | k−1 [1] | k1 ([1]; pH 7.0, 25° C.) | k2 ([1]; pH 7.0, 25° C.) | k1 ([1]; pH 9.4, 25° C.) | k2 ([1]; pH 9.4, 25° C.) | k1 ([1]; pH 11.0, 25° C.) | k2 ([1]; pH 11.0, 25° C.) | acid induced demetalation compared to compound II [2] | k1* (acid catalyzed demetalation) [2] | half-life at 0.173 mM [2] [h] | demetalation in high concentration phosphate buffer [3] | ki × 10^4 (intramolecular inactivation) [4] [s^−1] | k2 × 10^−3, from Equation (5) [4] [M^−1s^−1] | k2 × 10^−3, from initial rates [4] [M^−1s^−1] | other results
CN1C(=O)[N]2C(C)(C)C(=O)[N]3c4ccccc4[N]4C(=O)C(C)(C)[N](C1=O)[Fe]342[Cl] [Catalyst 1A, Tetraethyl ammonium 3,3,6,9,9-pentamethyl-1,4,8,11-tetrahydro-1H-benzo[i][1,4,6,8,11]pentaazacyclotridecine-2,5,7,10(6H,11H)-tetraone ferrate] | ~0 | (2.0 ± 0.1) × 10^2 M^−1s^−1 | (2.0 ± 0.1) × 10^4 M^−1s^−1 | (2.8 ± 0.2) × 10^3 M^−1s^−1 | (1.12 ± 0.10) × 10^5 M^−1s^−1 | (3.4 ± 0.2) × 10^4 M^−1s^−1 | (1.60 ± 0.10) × 10^5 M^−1s^−1 | significantly less | (3.7 ± 0.5) × 10^−3 M^−1s^−1 | 0.4 | insignificant absorption change | 3.7 ± 0.1 | 2.0 ± 0.1 | 2.4 ± 0.1 | catalytic activity compared with Fe-TAML ([1]; pH 7 and 9): much faster in oxidizing Orange II; bleaching of the dye Orange II by activation of H2O2 ([1]; pH 11): complete bleaching; pseudo first order rate constant kobs ([1]; pH 11): 0.021 ± 0.001 s⁻¹; stability at low pH ([3]; in presence of HClO4): very good stability up to pH 2; half-life ([3]; pH 5, 0.1M phosphate buffer, 25° C.): ~18 h; complex degraded ([3]; pH 5, 0.1M phosphate buffer, 5 hours, 25° C.): 10%; stability at different ionic strengths ([3]; pH 7, phosphate concentration): remarkably stable up to 0.5 M phosphate concentrations; Fe(III)/Fe(IV) couple lower than Fe-TAML complex (II) [5]: approximately 230 mV; formal reduction potential E1/2, reversible process (Fe(III)/Fe(IV) couple) ([5]; acetonitrile, 0.1 M [n-Bu4N]PF6, vs Fc+/Fc): −0.064 V; E1/2, quasi-reversible process ([5]; acetonitrile, 0.1 M [n-Bu4N]PF6, vs Fe+/Fc): −0.559 V
CN1C(=O)[N]2C(C)(C)C(=O)[N]3c4ccc([N+](=O)[O-])cc4[N]4C(=O)C(C)(C)[N](C1=O)[Fe]342[Cl] [Catalyst 1B, Tetraethyl ammonium 3,3,6,9,9-pentamethyl-13-nitro-1,4,8,11-tetrahydro-1H benzo[i][1,4,6,8,11]pentaazacyclotridecine-2,5,7,10(6H,11H)-tetraone ferrate] | ~0 | (1.24 ± 0.10) × 10^3 M^−1s^−1 | (4.1 ± 0.5) × 10^5 M^−1s^−1 | (2.36 ± 0.6) × 10^3 M^−1s^−1 | (4.2 ± 0.4) × 10^5 M^−1s^−1 | (2.4 ± 0.2) × 10^4 M^−1s^−1 | (4.9 ± 0.5) × 10^5 M^−1s^−1 | significantly less | (1.41 ± 0.09) × 10^−3 M^−1s^−1 | 1.33 | insignificant absorption change | 3.0 ± 0.2 | 3.8 ± 0.3 | 3.9 ± 0.1 | –
